These results are taken from patent publication US5698547A, “Cephalosporin antibiotics” (Microcide Pharmaceuticals, Inc., priority 1995, dated 1997).

Assay [1] concerns methicillin-susceptible S. aureus strain ATCC 13709. Nature of the assay: murine model for lethal bacteremic peritonitis. In kind it is in vivo, female Swiss-Webster mice. The following applies: subcutaneous, 72 h. Put shortly: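 Female Swiss-Webster mice challenged IP with an LD100 titer of bacteria in 7% hog gastric mucin; groups of 10 treated SC with twofold drug increments (0.01–512 mg/kg) as two equal doses at challenge and 2 h later. Survival followed for 72 h; PD50 (total mg/kg) calculated by probit method.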

Assay [2] concerns S. aureus Col8A (Meth^S) (lac^-). Nature of the assay: MIC by agar dilution, S. aureus Col8A (Meth^S) (lac^-). The class given is cell-based. Conditions: for activity against S. aureus Col 8A: in words, lacks PBP2a. How it is done: (§1) The compounds of the invention were evaluated against several β-lactamresistant bacteria strains by determining the minimum inhibitory concentration (MIC, μg/ml) of each compound with respect to each strain. The MIC, the lowest concentration of antibiotic which inhibits growth of the test organism, was determined by the agar dilution method.
(§2) To determine the MIC for bacterial isolates, the test compound was incorporated in a series of two-fold dilutions into liquified Mueller-Hinton agar. Upon solidification, a number of different bacterial strains were spot inoculated with a replicating device onto the agar surface. […] The procedures used in these studies have been standardized by the National Committee for Clinical Laboratory Standards (NCCLS), as per the NCCLS publication entitled METHODS FOR DILUTION ANTIMICROBIAL SUSCEPTIBILITY TESTS (1991), which is incorporated herein by reference.
(§3) Aliquots of antimicrobial agents were prepared in phosphate buffered saline (PBS) at pH 7.2. Tween 20 or DMSO was used as a solubilizing vehicle as needed. Standard methods of vortexing, sonicating and gentle heat were used to facilitate solubilizing the test agent. Typically, the concentration of the stock solution was 10× that of the highest drug concentration tested. A 1.28 mg/mL stock solution was used with a subsequent highest working concentration of 128 μg/mL. Serial two-fold dilutions were done through ≤0.25 μg/mL. Each drug level was tested in duplicate. Two-fold drug dilutions were done in sterile 50 mL tubes with a final drug volume of 5 mL. Upon the addition of 45 mL of molten agar, a 10-fold dilution resulted. Two, 25 mL. plates were then poured into 15×150 mm square Petri plates with grids and allowed to harden.
(§4) A control plate with a reference drug, either cefotaxime, vancomycin or imipenem, was used as the positive growth control. Stock concentrations of reference antibiotics were prepared and frozen at -80° C. Upon preparation, the control plates were sealed and stored in the refrigerator for up to 1 week prior to use; however, imipenem control plates had to be prepared just prior to use. All test plates were used within 24 hours of preparation.
(§5) Satisfactory results were obtained where the inoculum contained about 10^4 colony forming units (cfu) ±0.5 logs. Starting with pure cultures of the test isolates on agar plates, a few isolated colonies were transferred to a tube of nutrient broth and allowed to grow 4-6 hours at 35°-36° C. to reach log-phase growth. Dropwise addition of the broth culture to PBS was done to match a 0.5 McFarland turbidity standard equal to 10^8 cfu/mL. This was further diluted ten-fold in PBS to reach a working inoculum concentration of 10^7 cfu/mL. When 1 μL of the working inoculum was applied to the agar surface a concentration of about 10^4 cfu per spot was obtained.
(§6) Disposable sterile 1 μL loops were used to inoculate test plates, with each isolate in a designated grid on the agar plate. An alternate method of inoculation involved the use of a replica plater, a device with 48 steel pins allowing the simultaneous inoculation of multiple isolates. After the spots had dried, the plates were incubated at 35°-36° C. for 16-20 hours. Endpoints were assessed as the minimum inhibitory concentration (MIC) of antimicrobial agent.
The novel agents of this invention are notable for their enhanced activity against S. aureus Col and Enterococci (E. faecium and E. faecalis). The S. aureus Col strain is a high-level PBP2a producer, whereas S. aureus Col 8A, its isogenic partner, lacks PBP2a. […] Thus, the compounds of the present invention are effective against PBP2a-producing bacteria.

In assay [3] the test system is Enterococci (E. faecium and E. faecalis). Nature of the assay: In vitro antibacterial evaluation, Enterococci. The class given is cell-based. Conditions: in words. On the procedure:
as §1, §2, §3
A control plate with a reference drug, either cefotaxime, vancomycin or imipenem, was used as the positive growth control. […]
(§7) Disposable sterile 1 μL loops were used to inoculate test plates, with each isolate in a designated grid on the agar plate. […] Endpoints were assessed as the minimum inhibitory concentration (MIC) of antimicrobial agent.

The subject of assay [4] is S. aureus Col (Meth^R) (lac^-). Description: MIC by agar dilution, S. aureus Col (Meth^R) (lac^-). The following applies: for activity against S. aureus Col: in words, PBP2a producer; for MIC: agar dilution, S. aureus Col (Meth^R) (lac^-). The class given is cell-based. Put shortly:
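Agar dilution per NCCLS (1991): two-fold dilutions from 128 μg/mL down to ≤0.25 μg/mL in Mueller-Hinton agar, each level in duplicate. Spots of about 10^4 cfu of log-phase culture; 16-20 h at 35°-36° C. MIC in μg/ml is the lowest concentration inhibiting growth.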

For assay [5], the system named is S. aureus strain ATCC 13709. Description: Challenge strain MIC. In kind it is cell-based. The following applies: Staphylococcus aureus, ATCC13709; S. aureus ATCC 13709; read-out: Challenge str MIC. On the procedure: as §1, §2
reported for challenge with methicillin-susceptible S. aureus

The test system of assay [6] is MRSA strains. The following applies: in words, reported; cited from earlier work.
For assay [7], the system named is E. coli ATCC 25922. Description: MIC by agar dilution, E. coli ATCC 25922. In kind it is cell-based. How it is done:
as §1, §2, §3, §4, §5, §6

Assay [8] concerns S. haemolyticus (Meth^R). Nature of the assay: MIC by agar dilution, S. haemolyticus (Meth^R). The class given is cell-based. How it is done: as §1, §2, §3, §4, §5, §6
The test system of assay [9] is S. aureus 76 (Meth^R) (lac^+). Description: MIC by agar dilution, S. aureus 76 (Meth^R) (lac^+). The class given is cell-based. On the procedure:
as §1, §2, §3, §4, §5, §6

The test system of assay [10] is S. epidermidis ATCC 31432. Nature of the assay: MIC by agar dilution, S. epidermidis ATCC 31432. In kind it is cell-based. On the procedure: as §1, §2
(§8) Aliquots of antimicrobial agents were prepared in phosphate buffered saline (PBS) at pH 7.2. Tween 20 or DMSO was used as a solubilizing vehicle as needed. Standard methods of vortexing, sonicating and gentle heat were used to facilitate solubilizing the test agent. […]
as §7

For assay [11], the system named is E. faecium ATCC 35667. Nature of the assay: MIC by agar dilution, E. faecium ATCC 35667. The class given is cell-based. How it is done:
as §1, §2, §3, §4, §5, §6

Assay [12] deals with P. aeruginosa ATCC 27853. Nature of the assay: MIC by agar dilution, P. aeruginosa ATCC 27853. The class given is cell-based. On the procedure:
as §1, §2, §3, §4, §5, §6

Assay [13] deals with E. faecalis ATCC 29212. Nature of the assay: MIC by agar dilution, E. faecalis ATCC 29212. The class given is cell-based. On the procedure: as §1, §2, §3, §4, §5, §6
Assay [14] concerns S. aureus ATCC 25923. Description: MIC by agar dilution, S. aureus ATCC 25923. In kind it is cell-based. How it is done:
as §1, §2, §8, §7

[15] abbreviates: Staphylococcus aureus, read-out: MIC.

Converted amounts (≈) assume the structure as drawn. “And” between values parts separate entries of the source, which are not always exact repeats. Equal entries are not always repeated. Structures can show the parent of a compound that is named as a salt. Where two headings read alike, the source gives them in different places.

For `O=C(Cc1ccccc1)N[C@@H]1C(=O)N2C(C(=O)O)=C(Sc3ccccc3I)CS[C@H]12` [Cmpd 6, (7R)-7-[(Phenylacetyl)amino]-3-(o-iodophenylthio)-3-cephem-4-carboxylic acid], the Mortality in [1] (dose 0.625 mg/kg) is reported as 9/10; in [1] (dose 1.25 mg/kg), 4/10; in [1] (dose 2 mg/kg) it was 8/10; in assay [1] (dose 2.5 mg/kg), 4/10; in assay [1] (dose 4 mg/kg) it was 5/10; in assay [1] (dose 5 mg/kg), 1/10. The Mortality in assay [1] (dose 8 mg/kg) was 1/10; in assay [1] (dose 10 mg/kg) it was 1/10; in [1] (dose 16 mg/kg) it was 0/10. For the same compound, in assay [2], the “activity against S. aureus Col 8A” value is given as “broad activity”. The “activity against Enterococci” value in assay [3] is given as “broad activity”. Further, in assay [4], the “activity against S. aureus Col” value is recorded as “broad activity”.

Turning to `O=C(Cc1ccccc1)N[C@@H]1C(=O)N2C(C(=O)O)=C(Sc3ccccc3-c3ccccc3)CS[C@H]12` [Cmpd 9, (7R)-7-[(Phenylacetyl)amino]-3-(2-biphenylthio)-3-cephem-4-carboxylic acid], the “activity against S. aureus Col 8A” value in assay [2] is given as “broad activity”. Besides, the “activity against Enterococci” value in assay [3] was “broad activity”. In addition, in assay [4] (setting [15]), the MIC was found to be 4 µg/mL (≈ 7.96 µM). Also, the “activity against S. aureus Col” value in assay [4] was “broad activity”.

With `N=C(N)NCCSCC(=O)N[C@@H]1C(=O)N2C(C(=O)O)=C(Sc3ccccc3CSC(=N)N)CS[C@H]12` [Cmpd 137, (7R)-7-[((2-guanidinoethylthio)acetyl)amino]-3-(2-isothiouroniummethylphenylthio)-3-cephem-4-carboxylate, trifluoroacetic acid salt], the Mortality in [1] (dose 0.0391 mg/kg) is 8/10; in assay [1] (dose 0.0781 mg/kg), 9/10; in assay [1] (dose 0.1562 mg/kg, trifluoroacetic acid salt), 7/10 and 9/10; in assay [1] (dose 0.3125 mg/kg, trifluoroacetic acid salt), 5/10 and 8/10; in assay [1] (dose 0.625 mg/kg, trifluoroacetic acid salt), 6/10 and 1/10; in assay [1] (dose 1.25 mg/kg) it was 0/10. Further, the Mortality in assay [1] (dose 2.5 mg/kg) is 0/10. Further, the ED50 in assay [1] (two equal doses, S. aureus ATCC 13709 IP challenge, trifluoroacetic acid salt, 4320 min) was 0.38 mg/kg. The figures for the MIC in assay [5] and in assay [4] (setting [15]) were 0.125 µg/mL and 2 µg/mL, respectively.

Turning to `C[C@@H](O)[C@H]1C(=O)N2C(C(=O)O)=C(SCCN=CN)C[C@H]12` [imipenem], in [6], the “activity against MRSA strains” value is on record as “active against a few MRSA strains”.

Take “(7R)-7-[(Phenylacetyl)amino]-3-(2,3-dihydro-2,2-dimethylbenzofuran-7-yl)-3-cephem-4-carboxylic acid [Cmpd 55]”: the MIC in assay [2] (agar dilution, S. aureus Col8A (Meth^S) (lac^-)) is below 0.25 µg/mL; in assay [7], above 32 µg/mL; in [8], 16 µg/mL; in [9], 16 µg/mL; in [10] it was below 0.25 µg/mL; in assay [11] it was 8 µg/mL. Further, the MIC is above 32 µg/mL in assay [12], 16 µg/mL in assay [13], below 0.25 µg/mL in assay [14] and 4 µg/mL in [4].
